# Values quoted from earlier work in patent US20240001339A1, “DRYING PROCESSES FOR BIO-COMPATIBLE SPME COATINGS” (SIGMS-ALDRICH CO. LLC, priority 2020, published 2024).
# Key:
# [1] = for conventional SPME devices
smiles,measurement,setting,value
NC(=O)N1c2ccccc2C=Cc2ccccc21 [Carbamazepine],reference protein binding,[1],70-80%
same,Log p,,2.45
same,pKa,,13.9
